From patent publication US4705784A, “Cephem compounds” (Sumitomo Pharmaceuticals Company, Limited, priority 1983, dated 1987)
In brackets after ≈: the same amount, converted by molar mass.

Columns and labels:
Enterobacter aerogenes = test: Antimicrobial activity test, Enterobacter aerogenes; type: cell-based; details: Klebsiella aerogenes
[1] = tested on: Staphylococcus epidermidis; test: Antimicrobial activity test, Staphylococcus epidermidis; type: cell-based
Proteus mirabilis = test: Antimicrobial activity test, Proteus mirabilis; type: cell-based
Serratia marcescens = test: Antimicrobial activity test, Serratia marcescens; type: cell-based
Escherichia coli = test: Antimicrobial activity test, Escherichia coli; type: cell-based
[2] = Oral dosage absorbability: urinary excretion rate after oral administration, rat; type: in vivo; details: urine, dose: 50 mg/kg
Protocol: (§1) Results of oral dosage absorbability tests
(§2) Urinary excretion rate after oral
(§3) Test compd. administration (dose: 50 mg/kg)

[3] = Oral dosage absorbability: urinary excretion rate after oral administration, mouse; type: in vivo; details: urine, dose: 50 mg/kg
Protocol: as §1, §2, §3

[4] = tested on: β-lactamase producing resistant bacteria; details: cephem antibiotics in use for oral administration; cited from earlier work
bacteria = details: cephem antibiotics in use for oral administration; cited from earlier work

Row | Structure (SMILES) | MIC (Enterobacter aerogenes) [µg/mL] | MIC [1] [µg/mL] | MIC (Proteus mirabilis) [µg/mL] | MIC (Serratia marcescens) [µg/mL] | MIC (Escherichia coli) [µg/mL] | dose excreted [2] [%] | dose excreted [3] [%] | effect on β-lactamase producing resistant bacteria [4] | antimicrobial activity and width of antimicrobial spectrum (bacteria)
1 | CO/N=C(\C(=O)NC1C(=O)N2C(C(=O)O)=C(COC(N)=O)CS[C@H]12)c1cscn1 (some centres unmarked) [Example 1, 7-[(Z)-2-Methoxyimino-2-(thiazol-4-yl)acetamido]-3-carbamoyloxymethyl-3-cephem-4-carboxylic acid] | 0.39 (≈ 0.883 µM) | 1.56 (≈ 3.53 µM) | ≤ 0.013 | 1.56 (≈ 3.53 µM) | 0.05 (≈ 0.113 µM) | – | – | – | –
2 | CO/N=C(\C(=O)NC1C(=O)N2C(C(=O)OCOC(=O)C(C)(C)C)=C(COC(N)=O)CS[C@H]12)c1cscn1 (some centres unmarked) [Example 5, Pivaloyloxymethyl 7-[(Z)-2-methoxyimino-2-(thiazol-4-yl)acetamido]-3-carbamoyloxymethyl-3-cephem-4-carboxylate] | – | – | – | – | – | 30 | 64 | – | –
3 | CCO/N=C(\C(=O)NC1C(=O)N2C(C(=O)O)=C(COC(N)=O)CSC12)c1cscn1 (centres unmarked) [Example 10] | 0.78 (≈ 1.71 µM) | 3.13 (≈ 6.87 µM) | 0.05 (≈ 0.11 µM) | 3.13 (≈ 6.87 µM) | 0.2 (≈ 0.439 µM) | – | – | – | –
4 | NC(=O)OCC1=C(C(=O)O)N2C(=O)C(NC(=O)/C(=N\O)c3cscn3)[C@H]2SC1 (some centres unmarked) [Example 16, 7-[(Z)-2-hydroxyimino-2-(thiazol-4-yl)acetamido]-3-carbamoyloxymethyl-3-cephem-4-carboxylic acid] | 1.56 (≈ 3.65 µM) | 1.56 (≈ 3.65 µM) | 0.78 (≈ 1.82 µM) | 3.13 (≈ 7.32 µM) | 0.39 (≈ 0.912 µM) | – | – | – | –
5 | N[C@@H](C(=O)N[C@@H]1C(=O)N2C(C(=O)O)=C(Cl)CS[C@H]12)c1ccccc1 [cefaclor] | – | – | – | – | – | – | – | ineffective | slightly inferior
6 | N[C@@H](C(=O)N[C@@H]1C(=O)N2C(C(=O)O)=C(CSc3c[nH]nn3)CS[C@H]12)c1ccc(O)cc1 [cefatrizine] | – | – | – | – | – | – | – | ineffective | slightly inferior
7 | CC1=C(C(=O)O)N2C(=O)[C@@H](NC(=O)[C@H](N)c3ccccc3)[C@H]2SC1 [cephalexin] | – | – | – | – | – | – | – | ineffective | slightly inferior
